Earlier results on two molecules are cited in patent US7001916B1, “Epothilon derivatives, method for the production and the use thereof as pharmaceuticals” (priority 1999, dated 2006).

In the data set the test system is P-glycoprotein-forming multiresistant tumor lines. The settings on record: in comparison to taxol.

SMILES strings stand for the structures.

With `C/C(=C\c1csc(C)n1)[C@@H]1C[C@@H]2O[C@@H]2CCC[C@H](C)[C@H](O)[C@@H](C)C(=O)C(C)(C)[C@@H](O)CC(=O)O1` [Epothilone A, epothilone A], the “activity against P-glycoprotein-forming multiresistant tumor lines” value is listed as “significantly higher activity”. For `C/C(=C\c1csc(C)n1)[C@@H]1C[C@@H]2O[C@]2(C)CCC[C@H](C)[C@H](O)[C@@H](C)C(=O)C(C)(C)[C@@H](O)CC(=O)O1` [Epothilone B, epothilone B], the “activity against P-glycoprotein-forming multiresistant tumor lines” value was “significantly higher activity”.
